#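 Tested at 5 concentrations; 48 h exposure; 96-well plates; endpoints linearly interpolated, else capped at highest concentration. GI50 marks 50% less growth.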 Active and inactive are the calls of the source. Rule as the data show it: active = GI50 up to about 1.1 µM and inactive = higher.
# Legend:
# Experiment in all cases: growth of human tumour cells (NCI), 48 h
# IGROV-1 = test system: IGROV-1
# MOLT-4 = test system: MOLT-4
# UACC-257 = test system: UACC-257
# HCT-15 = test system: HCT-15
# KM12 = test system: KM12
# CAKI-1 = test system: CAKI-1
# SF-295 = test system: SF-295
# UACC-62 = test system: UACC-62
# SNB-75 = test system: SNB-75
# UO-31 = test system: UO-31
# NCI-H460 = test system: NCI-H460
# HT-29 = test system: HT-29
# HOP-92 = test system: HOP-92
# HOP-62 = test system: HOP-62
# SK-MEL-2 = test system: SK-MEL-2
# A498 = test system: A498
# RPMI-8226 = test system: RPMI-8226
# HCC 2998 = test system: HCC 2998
# OVCAR-5 = test system: OVCAR-5
# SF-268 = test system: SF-268
SMILES,GI50 (IGROV-1),GI50 (MOLT-4),GI50 (UACC-257),GI50 (HCT-15),GI50 (KM12),GI50 (CAKI-1),GI50 (SF-295),GI50 (UACC-62),GI50 (SNB-75),GI50 (UO-31),GI50 (NCI-H460),GI50 (HT-29),GI50 (HOP-92),GI50 (HOP-62),GI50 (SK-MEL-2),GI50 (A498),GI50 (RPMI-8226),GI50 (HCC 2998),GI50 (OVCAR-5),GI50 (SF-268)
CCOC(=O)c1csc(NC(=O)C(C)N2CCOCC2)n1 (stereo unspecified),> 100 µM (inactive),> 100 µM (inactive),> 100 µM (inactive),> 100 µM,> 100 µM (inactive),> 100 µM (inactive),> 100 µM (inactive),> 100 µM (inactive),> 100 µM (inactive),> 100 µM (inactive),> 100 µM (inactive),> 100 µM (inactive),> 100 µM (inactive),> 100 µM (inactive),> 100 µM (inactive),> 100 µM (inactive),> 100 µM (inactive),> 100 µM (inactive),> 100 µM (inactive),
COc1ccc(CNc2nc3cc(C(F)(F)F)ccc3nc2C(=O)O)cc1OC,12.2 µM (inactive),22.8 µM (inactive),34.2 µM (inactive),29.4 µM,32.1 µM (inactive),28.6 µM (inactive),34 µM (inactive),20.5 µM (inactive),47.9 µM (inactive),28.3 µM (inactive),36.6 µM (inactive),35.6 µM (inactive),27.2 µM (inactive),22 µM (inactive),23.2 µM (inactive),27.5 µM (inactive),28.1 µM (inactive),36 µM (inactive),46 µM (inactive),
CC(=O)N1C(=O)/C(=C\C(=O)c2ccc(Cl)cc2)c2ccccc21,16.7 µM (inactive),3.43 µM (inactive),14.9 µM (inactive),6.73 µM,16.9 µM (inactive),13.3 µM (inactive),21.1 µM (inactive),13.4 µM (inactive),17.7 µM (inactive),15.4 µM (inactive),15 µM (inactive),4.32 µM (inactive),18.3 µM (inactive),20.1 µM (inactive),18.5 µM (inactive),19.2 µM (inactive),24.4 µM (inactive),15.9 µM (inactive),20 µM (inactive),18 µM (inactive)
CC(=O)O[C@H]1CC[C@@]2(C)C(=CC[C@H]3[C@@H]4C[C@H](N5CCN(C)CC5)[C@H](OC(C)=O)[C@@]4(C)CC[C@@H]32)C1,19 µM (inactive),4.39 µM (inactive),6.17 µM (inactive),13 µM,16.7 µM (inactive),33.3 µM (inactive),22.1 µM (inactive),11.7 µM (inactive),24.4 µM (inactive),> 53 µM (inactive),21.6 µM (inactive),3.6 µM (inactive),25.4 µM (inactive),25.1 µM (inactive),18 µM (inactive),20.9 µM (inactive),4.39 µM (inactive),15.5 µM (inactive),26.1 µM (inactive),20 µM (inactive)
CC1(C)O[C@H]2OC(CO)C(OS(C)(=O)=O)[C@H]2O1 (stereo partly specified),> 100 µM (inactive),,> 100 µM (inactive),> 100 µM,> 100 µM (inactive),> 100 µM (inactive),> 100 µM (inactive),> 100 µM (inactive),> 100 µM (inactive),> 100 µM (inactive),> 100 µM (inactive),> 100 µM (inactive),> 100 µM (inactive),> 100 µM (inactive),> 100 µM (inactive),> 100 µM (inactive),> 100 µM (inactive),> 100 µM (inactive),> 100 µM (inactive),> 100 µM (inactive)
COC(C/C(=C/CO[Si](C(C)C)(C(C)C)C(C)C)C(=O)N(C(=O)OC(C)(C)C)c1ccccc1I)OC,0.0262 µM (active),22.9 µM (inactive),38.8 µM (inactive),33.4 µM,41.9 µM (inactive),33.2 µM (inactive),10.7 µM (inactive),> 100 µM (inactive),> 100 µM (inactive),42.1 µM (inactive),31.8 µM (inactive),> 100 µM (inactive),2.16 µM (inactive),57.7 µM (inactive),17.8 µM (inactive),> 100 µM (inactive),15.2 µM (inactive),40.6 µM (inactive),36.1 µM (inactive),> 100 µM (inactive)
CCC1CN2CCc3cc(OC)c(OC)cc3C2CC1CC1c2cc(OC)c(OC)cc2CCN1C(=O)C(N)Cc1ccccc1.[O-][Cl+3]([O-])([O-])O (stereo unspecified),,0.239 µM (active),2.35 µM (inactive),1.72 µM,1.77 µM (inactive),1.95 µM (inactive),2.05 µM (inactive),3.11 µM (inactive),2.94 µM (inactive),2.13 µM (inactive),0.538 µM (active),0.486 µM (active),1.19 µM (inactive),2.73 µM (inactive),2.23 µM (inactive),3.24 µM (inactive),1.94 µM (inactive),0.564 µM (active),3.08 µM (inactive),3.37 µM (inactive)
CSC(=S)N(C)c1nc(N(C)C)s[s+]1,> 100 µM (inactive),> 100 µM (inactive),> 100 µM (inactive),> 100 µM,> 100 µM (inactive),> 100 µM (inactive),> 100 µM (inactive),> 100 µM (inactive),> 100 µM (inactive),> 100 µM (inactive),> 100 µM (inactive),> 100 µM (inactive),> 100 µM (inactive),> 100 µM (inactive),> 100 µM (inactive),44.4 µM (inactive),19.9 µM (inactive),> 100 µM (inactive),> 100 µM (inactive),> 100 µM (inactive)
O=C(O)CSc1nnc(/C=C/c2ccccc2)[nH]1,> 100 µM (inactive),> 100 µM (inactive),> 100 µM (inactive),> 100 µM,> 100 µM (inactive),> 100 µM (inactive),> 100 µM (inactive),> 100 µM (inactive),> 100 µM (inactive),> 100 µM (inactive),> 100 µM (inactive),> 100 µM (inactive),> 100 µM (inactive),> 100 µM (inactive),> 100 µM (inactive),> 100 µM (inactive),> 100 µM (inactive),> 100 µM (inactive),> 100 µM (inactive),> 100 µM (inactive)
CN1CCC(c2c(O)cc(O)c3c(=O)cc(-c4ccccc4Cl)oc23)C(O)C1 (stereo unspecified),0.0735 µM (active),< 0.0108 µM (active),0.0627 µM (active),0.057 µM,0.0228 µM (active),0.0628 µM (active),< 0.0253 µM (active),0.0289 µM (active),0.0219 µM (active),0.0303 µM (active),0.0592 µM (active),0.156 µM (active),0.0194 µM (active),0.018 µM (active),0.0323 µM (active),0.117 µM (active),< 0.01 µM (active),0.165 µM (active),0.128 µM (active),0.0467 µM (active)
